Test results from ChEMBL document CHEMBL5550112, “Development of a fluorescent ligand that can illuminate nuclear G-quadruplexes and modulate oncogene expression” (Bioorg Med Chem, 2024).
pIC50, pKd: −log10 of the molar value. Calls of active or inactive are those of the source. The rule behind the calls is not given here.

Tests used:
Quadruplex DNA [1] = assay: Binding affinity to c-MYC G-quadruplex DNA (unknown origin) assessed as imino proton signal by NMR spectral analysis; type: nucleic-acid assay
MDA-MB-231 [2] = assay: Induction of cell cycle arrest in human MDA-MB-231 cells assessed as accumulation of cells at G2-M phase at 10 uM incubated for 24 hrs by flow cytometry (reference value: 16.8 %); type: functional
Quadruplex DNA [3] = assay: Binding affinity to 3'-Cy5-labelled c-MYC G-quadruplex DNA (unknown origin) assessed as dissociation constant by fluorescence quenching analysis; type: nucleic-acid assay
Quadruplex DNA [4] = assay: Binding affinity to c-MYC G-quadruplex DNA (unknown origin) assessed as decrease in absorption band by measuring red shift at 5 uM by absorption spectra analysis; type: nucleic-acid assay
DNA = assay: Binding affinity to Duplex DNA (unknown origin) assessed as increase in fluorescence by measuring red shift at 5 uM by fluorescence titration spectra analysis; type: nucleic-acid assay
Quadruplex DNA [5] = assay: Binding affinity to 3'-Cy5-labelled c-MYC G-quadruplex DNA (unknown origin) assessed as decrease in Cy5 fluorescence upto 5 uM by fluorescence quenching analysis; type: nucleic-acid assay
Quadruplex DNA [6] = assay: Binding affinity to Antiparallel Bm G-quadruplex DNA (unknown origin) assessed as increase in fluorescence intensity at 5 uM by fluorescence spectrophotometric analysis; type: nucleic-acid assay
Quadruplex DNA [7] = assay: Binding affinity to Parallel BCL2 G-quadruplex DNA (unknown origin) assessed as increase in fluorescence intensity at 5 uM by fluorescence spectrophotometric analysis; type: nucleic-acid assay
Quadruplex DNA [8] = assay: Binding affinity to Parallel KRAS G-quadruplex DNA (unknown origin) assessed as increase in fluorescence intensity at 5 uM by fluorescence spectrophotometric analysis; type: nucleic-acid assay
Quadruplex DNA [9] = assay: Binding affinity to Parallel c-MYC G-quadruplex DNA (unknown origin) assessed as increase in fluorescence intensity at 5 uM by fluorescence spectrophotometric analysis; type: nucleic-acid assay
MDA-MB-231 [10] = assay: Induction of cell cycle arrest in human MDA-MB-231 cells assessed as accumulation of cells at sub-G1 phase at 15 uM incubated for 24 hrs by flow cytometry (reference value: 0.6 %); type: functional
Quadruplex DNA [11] = assay: Binding affinity to G-quadruplex DNA in human MDA-MB-231 cells assessed as increase in fluorescence at 2 uM incubated for 30 mins by RNase A digestion based confocal microscopic analysis; type: cell-based
MDA-MB-231 [12] = assay: Induction of apoptosis in human MDA-MB-231 cells assessed as downregulation of KRAS gene expression at 10 to 20 uM incubated for 24 hrs by RT-PCR analysis; type: functional, cell-based; settings: dose 10-20 µM
MDA-MB-231 [13] = assay: Induction of cell cycle arrest in human MDA-MB-231 cells assessed as accumulation of cells at S phase at 15 uM incubated for 24 hrs by flow cytometry (reference value: 13 %); type: functional
Quadruplex DNA [14] = assay: Binding affinity to Antiparallel TBA G-quadruplex DNA (unknown origin) assessed as increase in fluorescence intensity at 5 uM by fluorescence spectrophotometric analysis; type: nucleic-acid assay
MDA-MB-231 [15] = assay: Induction of cell cycle arrest in human MDA-MB-231 cells assessed as accumulation of cells at G2-M phase at 20 uM incubated for 24 hrs by flow cytometry (reference value: 16.8 %); type: functional
Calf thymus DNA = assay: Binding affinity to calf thymus DNA (unknown origin) assessed as increase in fluorescence intensity at 5 uM by fluorescence spectrophotometric analysis; settings: Bos taurus
Quadruplex DNA [16] = assay: Binding affinity to G-quadruplex DNA in human MDA-MB-231 cells assessed as increase in fluorescence at 2 uM incubated for 30 mins in presence of dimethyl sulfate by Hoechst 33342 staining based confocal microscopic analysis; type: cell-based
MDA-MB-231 [17] = assay: Induction of cell cycle arrest in human MDA-MB-231 cells assessed as accumulation of cells at G0-G1 phase at 10 uM incubated for 24 hrs by flow cytometry (reference value: 69.6 %); type: functional
Quadruplex DNA [18] = assay: Binding affinity to Parallel c-KIT2 G-quadruplex DNA (unknown origin) assessed as increase in fluorescence intensity at 5 uM by fluorescence spectrophotometric analysis; type: nucleic-acid assay
MDA-MB-231 [19] = assay: Antiproliferative activity against human MDA-MB-231 cells cultured as 3D tumor spheroids assessed as inhibition of tumor volume incubated for 7 days; type: functional, cell-based; settings: time 7.0 day
MDA-MB-231 [20] = assay: Induction of apoptosis in human MDA-MB-231 cells assessed as […] protein expression at 10 to 20 uM incubated for 24 hrs by Western blot analysis; type: functional, cell-based; settings: dose 10-20 µM
Quadruplex DNA [21] = assay: Binding affinity to KRAS G-quadruplex DNA (unknown origin) assessed as fluorescence quantum yield by fluorescence spectrophotometric analysis; type: nucleic-acid assay
MDA-MB-231 [22] = assay: Induction of cell cycle arrest in human MDA-MB-231 cells assessed as accumulation of cells at sub-G1 phase at 20 uM incubated for 24 hrs by flow cytometry (reference value: 0.6 %); type: functional
Quadruplex DNA [23] = assay: Binding affinity to KRAS G-quadruplex DNA (unknown origin) assessed as decrease in absorption band by measuring red shift at 5 uM by absorption spectra analysis; type: nucleic-acid assay
Quadruplex DNA [24] = assay: Binding affinity to c-MYC G-quadruplex DNA (unknown origin) assessed as increase in fluorescence by measuring red shift at 5 uM by fluorescence titration spectra analysis; type: nucleic-acid assay
MDA-MB-231 [25] = assay: Induction of cell cycle arrest in human MDA-MB-231 cells assessed as accumulation of cells at G2-M phase at 15 uM incubated for 24 hrs by flow cytometry (reference value: 16.8 %); type: functional
Quadruplex DNA [26] = assay: Binding affinity to c-MYC G-quadruplex DNA (unknown origin) assessed as dissociation constant by fluorescence spectrophotometric analysis; type: nucleic-acid assay
MDA-MB-231 [27] = assay: Induction of apoptosis in human MDA-MB-231 cells assessed as downregulation of c-MYC protein expression at 10 to 20 uM incubated for 24 hrs by Western blot analysis; type: functional, cell-based; settings: dose 10-20 µM
MDA-MB-231 [28] = assay: Antiproliferative activity against human MDA-MB-231 cells assessed as inhibition of cell growth incubated for 24 hrs by CCK-8 assay; type: functional, cell-based; settings: MDA-MB-231, 24 h
MDA-MB-231 [29] = assay: Induction of cell death in human MDA-MB-231 cells cultured as 3D tumor spheroids assessed as increase in red fluorescence intensity at 40 uM incubated for 7 days by propidium iodide staining based imaging analysis; type: functional; settings: time 7.0 day
Quadruplex DNA [30] = assay: Stabilization of FAM/TAMRA-labelled c-MYC G-quadruplex DNA (unknown origin) assessed as change in melting temperature in presence of duplex DNA by FRET assay; type: nucleic-acid assay
Quadruplex DNA [31] = assay: Binding affinity to Parallel CHL1 G-quadruplex DNA (unknown origin) assessed as increase in fluorescence intensity at 5 uM by fluorescence spectrophotometric analysis; type: nucleic-acid assay

For `CCn1c2ccccc2c2cc(/C=C/c3sc4ccccc4[n+]3C)ccc21.[I-]`, the Activity (Quadruplex DNA [1]) was “Active”, the Activity (MDA-MB-231 [2]) was 16% and the pKd (Quadruplex DNA [3]) was 6.00. The Activity (Quadruplex DNA [4]) was “Active”, the Activity (DNA) was “Active” and the Activity (Quadruplex DNA [5]) was “Active”. The Activity (Quadruplex DNA [6]) was “Active”, the Activity (Quadruplex DNA [7]) was “Active” and the Activity (Quadruplex DNA [8]) was “Active”. For the same molecule, the Activity (Quadruplex DNA [9]) was “Active”, the Activity (MDA-MB-231 [10]) was 32.3% and the Activity (Quadruplex DNA [11]) was “Active”. For the same molecule, the Activity (MDA-MB-231 [12]) was “Active”, the Activity (MDA-MB-231 [13]) was 10.2% and the Activity (Quadruplex DNA [14]) was “Active”. The Activity (MDA-MB-231 [15]) was 6.4%, the Activity (Calf thymus DNA) was “Active” and the Activity (Quadruplex DNA [16]) was “inactive”. For the same molecule, the Activity (MDA-MB-231 [17]) was 66.5%, the Activity (Quadruplex DNA [18]) was “Active” and the Activity (MDA-MB-231 [19]) was “Dose-Dependent Effect”. For the same molecule, the Activity (MDA-MB-231 [20]) was “Active”, the Activity (Quadruplex DNA [21]) was 0.19 and the Activity (MDA-MB-231 [22]) was 56.7%. For the same molecule, the Activity (Quadruplex DNA [23]) was “Active”, the Activity (Quadruplex DNA [24]) was “Active” and the Activity (MDA-MB-231 [25]) was 10.3%. For the same molecule, the pKd (Quadruplex DNA [26]) was 6.15, the Activity (MDA-MB-231 [27]) was “Active” and the pIC50 (MDA-MB-231 [28]) was 4.88. For the same molecule, the Activity (MDA-MB-231 [29]) was “Active”, the ΔTm (Quadruplex DNA [30]) was 8.1 °C and the Activity (Quadruplex DNA [31]) was “Active”.
